Laboratory results taken from patent US12371454B2, “Cyclic peptide compound having Kras inhibitory action” (priority 2019, dated 2025).
Starred links: 1 amine or outer side, 2 acyl side, 3 side chain; linkers in the order of their positions; H or OH if unused. Positions of bridges follow the written chain, without caps; N, C: chain ends. Non-standard residues stand in square brackets, D forms with d. Residues, ends and D or L forms follow the SMILES beside them. *: point of attachment. hPhe(3,5-F2-4-CF3) = N[C@@H](CCc1cc(F)c(C(F)(F)F)c(F)c1)C(=O)O; hPhe(3-Cl-4-CF3) = N[C@@H](CCc1ccc(C(F)(F)F)c(Cl)c1)C(=O)O; hPhe(3-F,4-CF3) = N[C@@H](CCc1ccc(C(F)(F)F)c(F)c1)C(=O)O; NMePhe(4-CF3) = CN[C@@H](Cc1ccc(C(F)(F)F)cc1)C(=O)O; hPhe(4-CF3) = N[C@@H](CCc1ccc(C(F)(F)F)cc1)C(=O)O; NMeAbu(4,4,4-F3) = CN[C@@H](CC(F)(F)F)C(=O)O; NMePhe(4-Cl) = CN[C@@H](Cc1ccc(Cl)cc1)C(=O)O; NMePhe(2-OMe) = CN[C@@H](Cc1ccccc1OC)C(=O)O; NMePhe(4-Me) = CN[C@@H](Cc1ccc(C)cc1)C(=O)O; NMedβ3hAla = C[C@H](CC(=O)[*:2])N(C)[*:1]; Phe(3-CN) = N#Cc1cccc(C[C@H](N)C(=O)O)c1; NMeGly(cPent) = CN[C@H](C(=O)O)C1CCCC1; Phe(3-I) = N[C@@H](Cc1cccc(I)c1)C(=O)O; Pro(4,4-F2) = O=C(O)[C@@H]1CC(F)(F)CN1; NMeAla(cPr) = CN[C@@H](CC1CC1)C(=O)O; NMeCha = CN[C@@H](CC1CCCCC1)C(=O)O; X2 = C=CC[C@](C)(N[*:1])C(=O)[*:2]; NMeChg = CN[C@H](C(=O)O)C1CCCCC1; NMeF = CN[C@@H](Cc1ccccc1)C(=O)O; hPhe = N[C@@H](CCc1ccccc1)C(=O)O; N(CH2CH2)2CF2 = FC1(F)CCN(*)CC1; NMeβAla = CN(CCC(=O)[*:2])[*:1]; NMeD = CN[C@@H](CC(=O)O)C(=O)O; NMeL = CN[C@@H](CC(C)C)C(=O)O; Chg = N[C@H](C(=O)O)C1CCCCC1; NMeV = CN[C@H](C(=O)O)C(C)C; d(β3hA) = C[C@@H](N)CC(=O)O; dIva = CC[C@@](C)(N)C(=O)O; NMeS = CN[C@@H](CO)C(=O)O; dPip = O=C(O)[C@H]1CCCCN1; NMeA = CN[C@@H](C)C(=O)O; NMeAib = CNC(C)(C)C(=O)O; Nle = CCCC[C@H](N)C(=O)O; Piperidide = C1CCN(*)CC1; Pyrrolidide = C1CCN(*)C1; Ac5c = NC1(C(=O)O)CCCC1; Aze = O=C(O)[C@@H]1CCN1; Ac4c = NC1(C(=O)O)CCC1; CH2CMe2OH = CC(C)(O)C*; Ac3c = NC1(C(=O)O)CC1; Sar = CNCC(=O)O

Biological target: T1, Kras and SOS1 (biotin-tagged human Kras loaded with GDP, His-tagged human SOS1) (Homo sapiens, UniProt P01116, G12D)
T1 construct: made in house; host or cells: E. coli (stated for Kras only)
Assay: Protein-protein interaction inhibition between Kras and SOS1 (KrasGl2D-SOS PPI) using AlphaScreen
Assay type: binding
Conditions: AlphaScreen; biotin-tagged human Kras loaded with GDP, His-tagged human SOS1; read-out: KRAS G12D-SOS PPI IC50
Summary of the method: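 Binding between SOS1 and Kras is detected as bead-proximity luminescence: illuminate Ni-conjugated donors (680 nm), collect 520-620 nm emission from streptavidin-conjugated acceptors; Kras carries biotin and GDP loaded after purification, SOS1 carries a His tag.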

T1 sequence (P01116 1-188 isoform P01116-2 G12D): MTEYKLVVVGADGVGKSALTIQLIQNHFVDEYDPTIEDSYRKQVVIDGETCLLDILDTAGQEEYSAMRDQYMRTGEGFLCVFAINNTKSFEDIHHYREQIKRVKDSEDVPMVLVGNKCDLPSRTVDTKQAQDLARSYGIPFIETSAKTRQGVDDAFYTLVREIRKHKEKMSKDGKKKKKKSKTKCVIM

| SMILES | IC50 [nM] |
| --- | --- |
| C=CC[C@]1(C)NC(=O)[C@@H]2CCCN2C(=O)[C@H](CCc2ccc(C(F)(F)F)c(Cl)c2)NC(=O)CN(C)C(=O)[C@H](CC2CCCCC2)N(C)C(=O)CN(C)C(=O)CN(C)C(=O)[C@H]([C@@H](C)CC)NC(=O)[C@H](CC(C)C)N(C)C(=O)C[C@@H](C)NC(=O)[C@H](C(C)C)N(C)C1=O [Compound 242] (cyclo(I[Sar][Sar][NMeCha][Sar][hPhe(3-Cl-4-CF3)]P[X2][NMeV][d(β3hA)][NMeL])) | 27 |
| CC[C@H](C)[C@@H]1NC(=O)CCN(C)C(=O)[C@H](COCC(C)(C)O)N(C)C(=O)[C@H](C2CCCC2)N(C)C(=O)C2(CCCC2)NC(=O)[C@@H]2CCCN2C(=O)[C@H](CCc2ccc(C(F)(F)F)c(Cl)c2)NC(=O)CN(C)C(=O)[C@H](CC2CCCCC2)N(C)C(=O)CN(C)C(=O)CN(C)C1=O [Compound 244] (cyclo([Ac5c][NMeGly(cPent)][NMeS](CH2CMe2OH)[NMeβAla]I[Sar][Sar][NMeCha][Sar][hPhe(3-Cl-4-CF3)]P)) | 140 |
| CC[C@H](C)[C@@H]1NC(=O)[C@H](CC(F)(F)F)N(C)C(=O)C[C@@H](C(=O)N2CCCC2)N(C)C(=O)[C@H](C2CCCCC2)N(C)C(=O)C2(CCCC2)NC(=O)[C@@H]2CCCN2C(=O)[C@H](CCc2ccc(C(F)(F)F)c(Cl)c2)NC(=O)CN(C)C(=O)[C@H](Cc2ccc(C(F)(F)F)cc2)N(C)C(=O)CN(C)C(=O)CN(C)C1=O [Compound 245, (3S,9S,18S,21S,25S,28S,34S)-3-[2-[3-chloro-4-(trifluoromethyl)phenyl]ethyl]-28-cyclohexyl-7,10,13,16,22,26,29-heptamethyl-18-[(1S)-1-methylpropyl]-25-(pyrrolidine-1-carbonyl)-21-(2,2,2-trifluoroethyl)-9-[[4-(trifluoromethyl)phenyl]methyl]spiro[1,4,7,10,13,16,19,22,26,29,32-undecazabicyclo[32.3.0]heptatriacontane-31,1′-cyclopentane]-2,5,8,11,14,17,20,23,27,30,33-undecone] ([NMeAbu(4,4,4-F3)]I[Sar][Sar][NMePhe(4-CF3)][Sar][hPhe(3-Cl-4-CF3)]P[Ac5c][NMeChg][NMeD]-Pyrrolidide; lactam N-11) | 0.37 |
| CC[C@H](C)[C@@H]1NC(=O)[C@H](CC(C)C)N(C)C(=O)C[C@@H](C(=O)N2CCCCC2)N(C)C(=O)[C@H](CC(C)C)NC(=O)C(C)(C)N(C)C(=O)[C@H](Cc2ccc(OC)cc2)NC(=O)[C@H](Cc2cccc(I)c2)NC(=O)CN(C)C(=O)[C@H](Cc2ccc(C)cc2)N(C)C(=O)CN(C)C(=O)CN(C)C1=O [Compound 247] ([NMeL]I[Sar][Sar][NMePhe(4-Me)][Sar][Phe(3-I)]Y(Me)[NMeAib]L[NMeD]-Piperidide; lactam N-11) | 7 |
| CC[C@H](C)[C@@H]1NC(=O)[C@H](CC2CC2)N(C)C(=O)C[C@@H](C)NC(=O)[C@H](C(C)C)N(C)C(=O)C2(CCCC2)NC(=O)[C@@H]2CCCN2C(=O)[C@H](CCc2ccc(C(F)(F)F)c(Cl)c2)NC(=O)CN(C)C(=O)[C@H](CC2CCCCC2)N(C)C(=O)CN(C)C(=O)CN(C)C1=O [Compound 248] (cyclo([Ac5c][NMeV][d(β3hA)][NMeAla(cPr)]I[Sar][Sar][NMeCha][Sar][hPhe(3-Cl-4-CF3)]P)) | 31 |
| CC[C@H](C)[C@@H]1NC(=O)[C@H](CC(C)C)N(C)C(=O)C[C@@H](C(=O)N2CCCCC2)N(C)C(=O)[C@H](C(C)C)N(C)C(=O)C2(CCC2)NC(=O)[C@H](CC(=O)N2CCC(F)(F)CC2)N(C)C(=O)[C@H](CCc2ccc(C(F)(F)F)c(Cl)c2)NC(=O)CN(C)C(=O)[C@H](CC2CCCCC2)N(C)C(=O)CN(C)C(=O)CN(C)C1=O [Compound 251] ([NMeL]I[Sar][Sar][NMeCha][Sar][hPhe(3-Cl-4-CF3)][NMeD](N(CH2CH2)2CF2)[Ac4c][NMeV][NMeD]-Piperidide; lactam N-11) | 3.8 |
| CC[C@H](C)[C@@H]1NC(=O)[C@H](C)N(C)C(=O)C[C@@H](C(=O)N2CCCCC2)NC(=O)[C@H](CC(C)C)N(C)C(=O)[C@H](Cc2ccccc2)N(C)C(=O)[C@H](CC(C)C)NC(=O)[C@H](Cc2cccc(C#N)c2)NC(=O)CN(C)C(=O)[C@H](Cc2ccc(Cl)cc2)N(C)C(=O)CN(C)C(=O)CN(C)C1=O [Compound 252] ([NMeA]I[Sar][Sar][NMePhe(4-Cl)][Sar][Phe(3-CN)]L[NMeF][NMeL]D-Piperidide; lactam N-11) | 55 |
| CC[C@H](C)[C@@H]1NC(=O)[C@H](CC(C)C)N(C)C(=O)C[C@@H](C)NC(=O)[C@H](CC(C)C)N(C)C(=O)C2(CCCC2)NC(=O)[C@@H]2CCCN2C(=O)[C@H](CCc2ccc(C(F)(F)F)cc2)NC(=O)CN(C)C(=O)[C@H](Cc2ccc(Cl)cc2)N(C)C(=O)CN(C)C(=O)CN(C)C1=O [Compound 258] (cyclo([Ac5c][NMeL][d(β3hA)][NMeL]I[Sar][Sar][NMePhe(4-Cl)][Sar][hPhe(4-CF3)]P)) | 36 |
| CCCC[C@@H]1NC(=O)[C@H](Cc2cccc(I)c2)NC(=O)CN(C)C(=O)[C@H](Cc2ccc(Cl)cc2)N(C)C(=O)CN(C)C(=O)CN(C)C(=O)[C@H]([C@@H](C)CC)NC(=O)[C@H](CC(C)C)N(C)C(=O)C[C@@H](C(=O)N2CCCCC2)N(C)C(=O)[C@H](CC(C)C)NC(=O)[C@H](Cc2ccccc2OC)N(C)C1=O [Compound 259] ([NMeL]I[Sar][Sar][NMePhe(4-Cl)][Sar][Phe(3-I)][Nle][NMePhe(2-OMe)]L[NMeD]-Piperidide; lactam N-11) | 21 |
| CC[C@H](C)[C@@H]1NC(=O)[C@H](CC(C)C)N(C)C(=O)C[C@@H](C(=O)N2CCCCC2)N(C)C(=O)[C@H](C(C)C)N(C)C(=O)C2(CCCC2)NC(=O)[C@@H]2CCCN2C(=O)[C@H](CCc2ccccc2)NC(=O)CN(C)C(=O)[C@H](CC2CCCCC2)N(C)C(=O)CN(C)C(=O)CN(C)C1=O [Compound 265] ([NMeL]I[Sar][Sar][NMeCha][Sar][hPhe]P[Ac5c][NMeV][NMeD]-Piperidide; lactam N-11) | 280 |
| CC[C@H](C)[C@@H]1NC(=O)[C@H](C)N(C)C(=O)C[C@@H](C(=O)N2CCCCC2)N(C)C(=O)[C@H](C(C)C)N(C)C(=O)C2(CCCC2)NC(=O)[C@@H]2CCCN2C(=O)[C@H](CCc2ccc(C(F)(F)F)c(F)c2)NC(=O)CN(C)C(=O)[C@H](CC2CCCCC2)N(C)C(=O)CN(C)C(=O)CN(C)C1=O [Compound 266] ([NMeA]I[Sar][Sar][NMeCha][Sar][hPhe(3-F,4-CF3)]P[Ac5c][NMeV][NMeD]-Piperidide; lactam N-11) | 4.6 |
| CC[C@H](C)[C@@H]1NC(=O)[C@H](C)N(C)C(=O)C[C@@H](C)NC(=O)[C@H](C(C)C)N(C)C(=O)C2(CCCC2)NC(=O)[C@@H]2CCCN2C(=O)[C@H](CCc2ccc(C(F)(F)F)c(Cl)c2)NC(=O)[C@H]2CCCCN2C(=O)[C@H](CC2CCCCC2)N(C)C(=O)[C@@H]2CCN2C(=O)CN(C)C1=O [Compound 267] (cyclo([Ac5c][NMeV][d(β3hA)][NMeA]I[Sar][Aze][NMeCha][dPip][hPhe(3-Cl-4-CF3)]P)) | 130 |
| CC[C@H](C)[C@@H]1NC(=O)[C@H](CC(C)C)N(C)C(=O)C[C@@H](C)N(C)C(=O)[C@H](C(C)C)N(C)C(=O)C2(CC2)NC(=O)[C@@H]2CCCN2C(=O)[C@H](CCc2ccc(C(F)(F)F)c(Cl)c2)NC(=O)CN(C)C(=O)[C@H](CC2CCCCC2)N(C)C(=O)CN(C)C(=O)CN(C)C1=O [Compound 268] (cyclo([Ac3c][NMeV][NMedβ3hAla][NMeL]I[Sar][Sar][NMeCha][Sar][hPhe(3-Cl-4-CF3)]P)) | 18 |
| CC[C@H](C)[C@@H]1NC(=O)[C@H](CC(C)C)N(C)C(=O)C[C@@H](C)N(C)C(=O)[C@H](C2CCCC2)N(C)C(=O)C2(CCCC2)NC(=O)[C@@H]2CC(F)(F)CN2C(=O)[C@H](CCc2cc(F)c(C(F)(F)F)c(F)c2)NC(=O)CN(C)C(=O)[C@H](Cc2ccc(C(F)(F)F)cc2)N(C)C(=O)CN(C)C(=O)CN(C)C1=O [Compound 269] (cyclo([Ac5c][NMeGly(cPent)][NMedβ3hAla][NMeL]I[Sar][Sar][NMePhe(4-CF3)][Sar][hPhe(3,5-F2-4-CF3)][Pro(4,4-F2)])) | 3.4 |
| CC[C@H](C)[C@@H]1NC(=O)[C@H](CC(C)C)N(C)C(=O)C[C@@H](C)NC(=O)[C@H](C(C)C)N(C)C(=O)[C@@](C)(CC)NC(=O)[C@@H]2CCCN2C(=O)[C@H](CCc2ccc(C(F)(F)F)c(Cl)c2)NC(=O)CN(C)C(=O)[C@H](CC2CCCCC2)N(C)C(=O)CN(C)C(=O)CN(C)C1=O [Compound 275] (cyclo(I[Sar][Sar][NMeCha][Sar][hPhe(3-Cl-4-CF3)]P[dIva][NMeV][d(β3hA)][NMeL])) | 46 |
| CC[C@H](C)[C@@H]1NC(=O)[C@H](CC(C)C)N(C)C(=O)C[C@@H](C(=O)N2CCCCC2)N(C)C(=O)[C@H](C2CCCCC2)N(C)C(=O)C2(CCCC2)NC(=O)[C@@H](C)NC(=O)[C@H](CCc2ccc(C(F)(F)F)c(Cl)c2)NC(=O)CN(C)C(=O)[C@H](CC2CCCCC2)N(C)C(=O)CN(C)C(=O)CN(C)C1=O [Compound 277] ([NMeL]I[Sar][Sar][NMeCha][Sar][hPhe(3-Cl-4-CF3)][dA][Ac5c][NMeChg][NMeD]-Piperidide; lactam N-11) | 5.1 |
| CC(C)C[C@H]1C(=O)N[C@@H](C2CCCCC2)C(=O)N(C)CC(=O)N(C)CC(=O)N(C)[C@@H](CC2CCCCC2)C(=O)N(C)CC(=O)N[C@@H](CCc2ccc(C(F)(F)F)c(Cl)c2)C(=O)N2CCC[C@H]2C(=O)NC2(CCCC2)C(=O)N(C)[C@@H](C(C)C)C(=O)N(C)[C@H](C(=O)N2CCCCC2)CC(=O)N1C [Compound 281] ([NMeL][Chg][Sar][Sar][NMeCha][Sar][hPhe(3-Cl-4-CF3)]P[Ac5c][NMeV][NMeD]-Piperidide; lactam N-11) | 7.8 |
